How the values were obtained:
[1] = tested on: NRRL 15878; assay: Resistance to antibiotics, sensitivity discs on seeded ISP No. 2 agar; type: cell-based, Actinomadura oligospora
Procedure: (§1) Resistance to antibiotics was measured by padding antibiotic sensitivity discs onto the surface of seeded ISP No. 2 agar plates.
(§2) Table III lists the resistance of the strain to various antibiotics at the concentrations indicated and compares it to that of A. macra.

[2] = tested on: A. macra; assay: as above; type: cell-based
Procedure: as §1, §2

[3] = tested on: Eimeria acervulina (Lilly strain 59), Eimeria maxima (strain FS-177) and Eimeria tenella (strain FS-155); assay: Coccidiosis test in broiler chicks, A80190 with nicarbazin (Test 1); type: in vivo; conditions: A80190 0 p.p.m. in ration

CO[C@H]1C[C@H](O[C@H]2[C@H](C)[C@@H](O[C@@H]3O[C@H](C)C[C@H](N(C)C)[C@H]3O)[C@@H](C)C[C@@]3(CO3)C(=O)[C@H](C)[C@@H](O)[C@@H](C)[C@@H](C)OC(=O)[C@@H]2C)O[C@@H](C)[C@@H]1O [Oleandomycin]
Resistance to Antibiotics ([1]; Concentration 15 µg): -

CN(C)[C@@H]1C(O)=C(C(N)=O)C(=O)[C@@]2(O)C(O)=C3C(=O)c4c(O)cccc4[C@@](C)(O)[C@H]3C[C@@H]12 [Tetracycline]
Resistance to Antibiotics ([1]; Concentration 30 µg): -

NC[C@H]1O[C@H](O[C@H]2[C@H](O)[C@@H](O[C@H]3O[C@H](CO)[C@@H](O)[C@H](N)[C@H]3O)[C@H](N)C[C@@H]2N)[C@H](N)C[C@@H]1O [Tobramycin]
Resistance to Antibiotics ([2]; Concentration 10 µg): -
Resistance to Antibiotics ([1]; Concentration 10 µg): -

CC(=O)OCC1=C(C(=O)O)N2C(=O)[C@@H](NC(=O)Cc3cccs3)[C@H]2SC1 [Cephalothin]
Resistance to Antibiotics ([1]; Concentration 30 µg): +

CCC[C@@H]1C[C@@H](C(=O)N[C@@H]([C@H]2O[C@H](SC)[C@H](O)[C@@H](O)[C@H]2O)[C@@H](C)O)N(C)C1 [Lincomycin]
Resistance to Antibiotics ([2]; Concentration 2 µg): +
Resistance to Antibiotics ([1]; Concentration 2 µg): +

[H]/N=C(/N)N[C@H]1[C@H](O)[C@@H](O)[C@H](O[C@@H]2O[C@@H](C)[C@](O)(C=O)[C@H]2O[C@@H]2O[C@@H](CO)[C@H](O)[C@@H](O)[C@@H]2NC)[C@@H](N/C(N)=N\[H])[C@@H]1O [Streptomycin]
Resistance to Antibiotics ([1]; Concentration 10 µg): -

Nicarbazin [reference compound]
CECAL LESION SCORES ([3]; Nicarbazin 20 p.p.m.): 3.19
INTESTINAL LESION SCORES ([3]; Nicarbazin 20 p.p.m.): 9.13
WEIGHT GAIN ([3]; Nicarbazin 20 p.p.m.): 159 grams/per chicken
CECAL LESION SCORES ([3]; Nicarbazin 30 p.p.m.): 3.50
INTESTINAL LESION SCORES ([3]; Nicarbazin 30 p.p.m.): 8.88
WEIGHT GAIN ([3]; Nicarbazin 30 p.p.m.): 174 grams/per chicken
CECAL LESION SCORES ([3]; Nicarbazin 40 p.p.m.): 3.17
INTESTINAL LESION SCORES ([3]; Nicarbazin 40 p.p.m.): 8.90
WEIGHT GAIN ([3]; Nicarbazin 40 p.p.m.): 211 grams/per chicken
CECAL LESION SCORES ([3]; Nicarbazin 50 p.p.m.): 3.19
INTESTINAL LESION SCORES ([3]; Nicarbazin 50 p.p.m.): 8.56
WEIGHT GAIN ([3]; Nicarbazin 50 p.p.m.): 222 grams/per chicken
CECAL LESION SCORES ([3]; Nicarbazin 125 p.p.m.): 0.33
INTESTINAL LESION SCORES ([3]; Nicarbazin 125 p.p.m.): 0.08
WEIGHT GAIN ([3]; Nicarbazin 125 p.p.m.): 279 grams/per chicken

CC1(C)S[C@@H]2[C@H](NC(=O)Cc3ccccc3)C(=O)N2[C@H]1C(=O)O [Pencillin G]
Resistance to Antibiotics ([1]; Concentration 10 units): +

CO[C@H]1/C=C/O[C@@]2(C)Oc3c(C)c(O)c4c(O)c(c(/C=N/N5CCN(C)CC5)c(O)c4c3C2=O)NC(=O)/C(C)=C\C=C\[C@H](C)[C@H](O)[C@@H](C)[C@@H](O)[C@@H](C)[C@H](OC(C)=O)[C@@H]1C [Rifampin]
Resistance to Antibiotics ([1]; Concentration 5 µg): +

NC[C@@H]1O[C@H](O[C@H]2[C@@H](O)[C@H](O[C@@H]3[C@@H](O)[C@H](N)C[C@H](N)[C@H]3O[C@H]3O[C@H](CN)[C@@H](O)[C@H](O)[C@H]3N)O[C@@H]2CO)[C@H](N)[C@@H](O)[C@@H]1O [Neomycin]
Resistance to Antibiotics ([2]; Concentration 30 µg): -
Resistance to Antibiotics ([1]; Concentration 30 µg): -
